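Briefly, cells in 96-well plates were exposed to five compound concentrations for 48 h, and endpoints were estimated by linear interpolation. TGI: concentration producing complete growth inhibition.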
Legend:
Test in all cases: DTP human tumour cell line panel, 48 h
[1] = test system: MCF7 breast
[2] = test system: MDA-MB-231 breast
[3] = test system: 786-0 renal
[4] = test system: SR leukemia
[5] = test system: SF-539 CNS
[6] = test system: HOP-62 NSCLC
[7] = test system: BT-549 breast
[8] = test system: CCRF-CEM leukemia

`O=C(NCCCCl)c1c(O)c2ccccc2[nH]c1=O` showed a TGI [1] of over 100 µM, a TGI [2] of over 100 µM and a TGI [3] of over 100 µM. For the same compound, the TGI [4] was over 100 µM, the TGI [5] was over 100 µM and the TGI [6] was over 100 µM. It also gave a TGI [7] of over 100 µM and a TGI [8] of over 100 µM.
With `COC(=O)c1cc2c3c(c(C(C)=O)c(OC)c2[nH]1)NCC3` the TGI [1] was over 50 µM, the TGI [2] was over 50 µM and the TGI [3] was over 50 µM. For the same compound, the TGI [4] was over 50 µM, the TGI [5] was over 50 µM and the TGI [6] was over 50 µM. It also gave a TGI [7] of over 50 µM and a TGI [8] of over 50 µM.
Work on `COc1cccc(N2N=C3c4ccccc4-n4c(nc5ccccc54)C3C2N)c1` (centres undefined) yielded a TGI [1] of over 100 µM, a TGI [2] of over 100 µM and a TGI [3] of over 100 µM. It also gave a TGI [4] of over 100 µM, a TGI [5] of over 100 µM and a TGI [6] of over 100 µM. It also gave a TGI [7] of over 100 µM.
With `CN(C)CCNc1nc2ccccc2c2c1C(=O)c1ccccc1-2` the TGI [1] was 1.87 µM, the TGI [2] was 2.62 µM and the TGI [3] was 3.66 µM. The TGI [5] was 3.04 µM, the TGI [6] was 3.72 µM and the TGI [7] was 3.14 µM. It also gave a TGI [8] of 4.05 µM.
With `C/C=C\C(CC(=O)O)CC(=O)NCCC1CN(S(=O)(=O)C(F)(F)F)c2ccccc21` (centres undefined) the TGI [1] was over 100 µM, the TGI [2] was over 100 µM and the TGI [3] was over 100 µM. For the same compound, the TGI [4] was over 100 µM, the TGI [6] was over 100 µM and the TGI [7] was over 100 µM. It also gave a TGI [8] of over 100 µM.
For `CN(C)CCNC(=O)c1cccc2c(NC(CS)C(=O)O)c3ccccc3nc12` (centres undefined), the TGI [1] was 29.5 µM, the TGI [2] was 23.6 µM and the TGI [3] was over 100 µM. For the same compound, the TGI [4] was over 100 µM, the TGI [5] was 18.1 µM and the TGI [6] was 41.6 µM. It also gave a TGI [7] of 45.6 µM and a TGI [8] of over 100 µM.
`COc1cc(C2S/C(=C/c3ccccc3)C(=O)N2c2ccc(Cl)cc2)cc(OC)c1OC` (centres undefined) showed a TGI [1] of over 100 µM, a TGI [2] of over 96.6 µM and a TGI [3] of over 100 µM. It also gave a TGI [4] of over 100 µM, a TGI [6] of over 100 µM and a TGI [7] of over 100 µM. For the same compound, the TGI [8] was over 100 µM.
With `Cn1c(=O)c2[nH]c(N/N=C3/SCC(=O)N3Cc3ccccc3)nc2n(C)c1=O` the TGI [1] was 45.8 µM, the TGI [2] was over 100 µM and the TGI [3] was 88.4 µM. For the same compound, the TGI [4] was 82.3 µM, the TGI [5] was over 100 µM and the TGI [6] was over 100 µM. For the same compound, the TGI [7] was over 100 µM and the TGI [8] was 62.9 µM.
`C=C(CCC(C(=O)O)C1CCC2(C)C3=C(CCC12C)C1(C)CCC(O)C(C)(C)C1CC3)C(C)C` (centres undefined) was tested, and the TGI [1] was over 100 µM, the TGI [2] was over 100 µM and the TGI [3] was over 100 µM. For the same compound, the TGI [4] was 27.2 µM, the TGI [5] was over 100 µM and the TGI [6] was over 100 µM. It also gave a TGI [7] of over 100 µM.
In the case of `c1csc(-c2ccc(-c3ccc(-c4cccs4)s3)s2)c1`, the TGI [1] is reported as over 100 µM, the TGI [2] is reported as over 100 µM and the TGI [3] is reported as over 100 µM. It also gave a TGI [4] of over 100 µM, a TGI [5] of over 100 µM and a TGI [6] of over 100 µM. The TGI [7] was over 100 µM.
For `COc1ccc(C=O)cc1Oc1ccc(C[C@H]2c3c(cc(OC)c4c3Oc3cc5c(cc3O4)CCN(C)C5=O)CCN2C)cc1`, the TGI [1] was 22.5 µM, the TGI [2] was 14.6 µM and the TGI [3] was 16.3 µM. The TGI [4] was 21.7 µM, the TGI [5] was 18.3 µM and the TGI [6] was 15.1 µM. The TGI [8] was 22.1 µM.
For `O=C(O)CNC(=O)c1cccc2c(=O)c3ccccc3[nH]c12`, the TGI [1] was over 100 µM, the TGI [2] was over 100 µM and the TGI [3] was over 100 µM. The TGI [4] was over 100 µM, the TGI [5] was over 100 µM and the TGI [6] was over 100 µM. For the same compound, the TGI [7] was over 100 µM and the TGI [8] was over 100 µM.

— PubChem BioAssay (NCI)
